Results on three compounds are retold here after the NIST ThermoML archive (doi:10.1021/je900503p).

Structures are written as SMILES. Where “and” joins values, the source holds several entries; their conditions need not be identical. Equal entries are not always repeated. Numbers after ± are expanded uncertainties.

As a reminder, the refractive index is the speed of light in vacuum divided by its phase velocity in the sample. For orientation: mass density means the mass of a sample divided by its volume.

Data set [1] can be described thus: refractive index (Na D-line) (dimensionless). To be noted: 101.33 kPa, Liquid.
Data set [2] is described as follows: relative permittivity at zero frequency (dimensionless). To be noted: 101 kPa, Liquid, Dekameter.
For data set [3] the following is noted: 101 kPa, Liquid.

Consider `CCCCO` [butan-1-ol], for which the refractive index is listed as 1.3992 ± 0.0012 in data set [1] (293.15 K), 1.3972 ± 0.0012 in data set [1] (298.15 K), 1.3963 ± 0.0012 in data set [1] (303.15 K) and 1.392 ± 0.0012 in data set [1] (313.15 K). Besides, the “relative permittivity at zero frequency” value turned out to be 18.26 ± 0.06 in data set [2] (293.15 K), 17.54 ± 0.06 in data set [2] (298.15 K), 16.89 ± 0.06 in data set [2] (303.15 K) and 15.45 ± 0.06 in data set [2] (313.15 K). The mass density in data set [3] (293.15 K) is 809.52 ± 0.43 kg/m3; in data set [3] (298.15 K), 805.58 ± 0.43 kg/m3; in data set [3] (303.15 K) it was 801.92 ± 0.44 kg/m3; in data set [3] (313.15 K), 794.26 ± 0.45 kg/m3.

Turning to `CCC(C)O` (stereo unspecified) [butan-2-ol], the refractive index is 1.3992 ± 0.0012 in data set [1] (293.15 K), 1.3954 ± 0.0012 in data set [1] (298.15 K), 1.3948 ± 0.0012 in data set [1] (303.15 K) and 1.391 ± 0.0012 in data set [1] (313.15 K). Moreover, the “relative permittivity at zero frequency” value in data set [2] (293.15 K) came out at 17.51 ± 0.06; in data set [2] (298.15 K), 16.58 ± 0.06; in data set [2] (303.15 K), 15.75 ± 0.06; in data set [2] (313.15 K) it was 14.44 ± 0.06. Moreover, the mass density amounted to 805.54 ± 0.46 kg/m3 in data set [3] (293.15 K), 802.06 ± 0.47 kg/m3 in data set [3] (298.15 K), 798.45 ± 0.47 kg/m3 in data set [3] (303.15 K) and 790.07 ± 0.48 kg/m3 in data set [3] (313.15 K).

As to `O=C1CCCO1` [γ-butyrolactone], the refractive index in data set [1] (293.15 K) was determined as 1.437 ± 0.0013; in data set [1] (298.15 K), 1.4356 ± 0.0013; in data set [1] (303.15 K), 1.4334 ± 0.0013; in data set [1] (313.15 K) it was 1.429 ± 0.0013. Besides, the “relative permittivity at zero frequency” value is 42.34 ± 0.06 and 42.81 ± 0.06 in data set [2] (293.15 K); 41.64 ± 0.06 in data set [2] (298.15 K); 41.1 ± 0.06 in data set [2] (303.15 K); 39.92 ± 0.06 in data set [2] (313.15 K). Also, the mass density in data set [3] (293.15 K) is 1128.79 ± 0.58 kg/m3; in data set [3] (298.15 K), 1123.75 ± 0.57 kg/m3; in data set [3] (303.15 K), 1118.79 ± 0.56 kg/m3; in data set [3] (313.15 K), 1121.76 ± 0.56 kg/m3 and 1108.88 ± 0.54 kg/m3.
